Patent publication US5459256A, “Lipophilic, aminohydrolase-activated prodrugs” (priority 1991, dated 1995)
Entries after “also recorded” stand apart in the source; their conditions may differ. Read-outs that look alike come from different tables or passages of the source. Each block holds one compound with its values, some of them ahead of it.

Experiments:
[1] = Octanol-water partition coefficient, microscale shake-flask
Procedure: Measurement of Octanol-Water Partition Coefficients.
n-Octanol-water partition coefficients (P) were determined by a microscale shake-flask procedure, (Ford, H. et al Abstracts of Papers, 200th National Meeting of the American Chemical Society, Washington, D.C.; American Chemical Society: Washington, D.C., 1990; CARB 13) which was modification of an earlier method (Nahum, A. & Horvath, C. J. Chromatogr. 1980, 192, 315). A 20 μL aliquot of a 0.5 mg/mL DMSO solution of the dideoxynucleoside was dissolved in 1.0 mL of octanol-saturated, pH 7.0, 0.01M potassium phosphate buffer. This was mixed thoroughly with 1.0 ml of buffer-saturated n-octanol in a 2-mL Mixxor apparatus at 24°-26° C. and then allowed to stand for 15 min. The phases were separated, centrifuged at 600×g for 5 min, and the relative concentration of sample in each phase determined by HPLC analysis of a 50 μl aliquot. The partition coefficient was calculated by dividing the absolute area of the appropriate integrated peak from the octanol phase by that of the buffer phase (Table I).
Octanol/pH 7.0 buffer partition coefficients were determined using a newly developed microscale method. […] The addition of a methyl group normally increases the log P value of a compound by about 0.5.

[2] = system: HIV-1/IIIB (CD4^+ ATH8 cells); experiment: HIV cytopathic effect inhibition assay in ATH8 cells (% protection); type: cell-based; settings: for anti-HIV activity (in words): no additive
Procedure: (§1) HIV Cytopathic Effect Inhibition Assay.
(§2) The HIV cytopathic effect inhibition assay was performed as previously described. (Mitsuya, H. & Broder, S. Proc. Nat. Acad. Sci. USA 1986, 83, 1911) Briefly, 200,000 target CD4^+ ATH8 cells were exposed to cell-free HIV-1/IIIB at a dose of 43 (or 1087 for compound 1g) TCID50 (50% tissue culture infectious dose) for 1 h, resuspended in 2 ml of fresh culture media containing interleukin 2, and cultured at 37° C. with or without test compounds in 5% CO2 -containing humidified air. On day 8 in culture, the viable cells were counted by using the dye exclusion method. All compounds, including inactives, were evaluated a minimum of two times in separate experiments. Data reported in Table II are from representative tests. The % protection against the virus was determined by the following formula: 100 times [(the number of viable cells exposed to HIV-1 and cultured in the presence of the compound minus the number of viable cells exposed to HIV-1 and cultured in the absence of compound) divided by (the number of viable cells cultured alone minus the number of viable cells exposed to HIV-1 and cultured in the absence of the compound)]. The % toxicity of a compound on the target cells was determined by the following formula: 100 times [1 minus (the number of total viable cells cultured in the presence of the compound divided by the number of total viable cells cultured alone)]. Calculated percentages equal to or less than zero are expressed as 0%.
^a ATH8 cells were exposed to HIV1/IIIB per cell for 1 hr and
cultured in the presence of various concentrations of each compound. On
day 8, the total viable cells were counted. Orders of numbers in the
column for concentrations correspond to the orders of numbers in other

[3] = Toxicity on ATH8 target cells (% toxicity, dye exclusion); type: cell-based; settings: human, ath8 cells
Procedure: as §1
as §2, with “(Mitsuya, H. & Broder, S. Proc. Nat. Acad. Sci. USA 1986, 83, 1911) Briefly, 200,000 target CD4^+ ATH8 cells were exposed to cell-free HIV-1/IIIB at a dose of 43 (or 1087 for compound 1g) TCID50 (50% tissue culture infectious dose) for 1 h, resuspended in 2 ml of fresh culture media containing interleukin 2, and cultured at 37° C. with or without test compounds in 5% CO2 -containing humidified air.” left out

[4] = target: T1, adenosine deaminase (adenosine aminohydrolase, EC 3.5.4.4) (Bos taurus, UniProt P56658); experiment: Enzymatic deamination by adenosine deaminase (HPLC)
T1 sequence (P56658 1-363): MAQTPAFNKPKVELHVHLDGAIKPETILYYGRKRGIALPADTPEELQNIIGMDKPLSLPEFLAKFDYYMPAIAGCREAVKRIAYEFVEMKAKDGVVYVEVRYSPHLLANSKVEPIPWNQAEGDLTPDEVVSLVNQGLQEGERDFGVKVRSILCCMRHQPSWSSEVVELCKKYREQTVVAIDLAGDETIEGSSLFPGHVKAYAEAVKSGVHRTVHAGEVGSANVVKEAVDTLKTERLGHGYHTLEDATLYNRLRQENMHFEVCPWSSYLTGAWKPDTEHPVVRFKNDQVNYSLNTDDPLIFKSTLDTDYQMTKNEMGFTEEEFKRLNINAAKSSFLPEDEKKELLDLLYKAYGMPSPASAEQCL
Procedure: FIG. 1. Deamination of dideoxyadenosine analogues by adenosine deaminase. Hydrolysis kinetics and 2'-F-dd-ara-I formation during the incubation of 50 μM N^6 -CH3 -2'-F-dd-ara-A (1f) with 0.7 units/mL of adenosine deaminase at 37° C. A unit of adenosine deaminase is the amount of enzyme which hydrolyzes a standard substrate (e.g., adenosine) at the rate of 1.0 μmole/min at 25° C. and pH 7.5. […] Insert: Adenosine deaminase hydrolysis kinetics for 50 μM ddA and 2'-F-dd-ara-A. The hydrolysis curve for ddA has been extrapolated from kinetics obtained with 0.07 units/mL of adenosine deaminase under identical conditions.
A 50 μl aliquot of a 10 mg/ml suspension of adenosine deaminase (adenosine aminohydrolase, EC 3.5.4.4) from calf intestinal mucosa was centrifuged at 600×g for 3 min. The residue remaining after removal of the (NH4)2 SO4 supernatant was dissolved in 0.5 ml pH 7.4 tris(hydroxymethyl)-aminomethane (Tris) buffer to give an enzyme solution of 1 mg/ml (274 units/ml). […] A pH 7.4 buffer was prepared by adjusting 0.01M Tris to pH 7.4 with 0.5N HCl, The 1.0 HCl , HPLC-grade acetonitrile, monobasic potassium phosphate, sodium hydroxide and ultrapure Tris were all commercially available and were used without further purification.
Enzymatic Deamination of Adenosine Analogues. […] A 50 μL aliquot of substrate solution was diluted with 0.95 ml 0.01M Tris buffer in a 1.5-mL Eppendorf tube and equilibrated at 37° C. in a Dubnoff metabolic shaking incubator. Reaction was initiated by addition of 2.5 μL of adenosine deaminase solution (0.7 unit). At specified time intervals, a 50 μL aliquot of the reaction mixture was withdrawn and quenched by mixing with 0.45 mL cold 2 μM 2'-deoxycoformycin. This diluted sample was ultrafiltered to remove enzyme in a Centrifree Micropartition unit by centrifugation at 600×g at 4° C. in a high speed refrigerated centrifuge. The decrease in substrate concentration was monitored by HPLC analysis of the resultant ultrafiltrate (see below). The ability of 2'-deoxycoformycin to inhibit deamination under the above conditions was evaluated by adding 2 μL of 1.0 mM inhibitor to diluted substrate solutions at the time of equilibration. Reaction, sampling and analysis were carried out as above. […] Initial hydrolysis rates for each substrate concentration were measured through linear least-squares curve fitting of the concentration versus time data for reaction of the first 10% of substrate. KM and vmax values for each substrate were then determined from a graphical lineweaver-Burke plot of these initial rates (FIG. 1).
HPLC Analysis of Dideoxypurine Nucleosides.
Concentrations of dideoxynucleosides were measured by the HPLC analysis of 100 μL aliquots of ultrafiltered samples. A 4.6×250 mm 5-μm Ultrasphere-ODS column, protected by a Waters guard column packed with 37-50 μm Vydac 201SC, was eluted with 10-20% CH3 CN in 0.01M pH 7.0 phosphate buffer at a flow rate of 1.0 mL/min. Dideoxynucleosides and deamination products were detected at the appropriate wavelength of maximum absorption with a Gilson 116 variable wavelength detector. Peak identity was determined from coincidence of retention times with standards and by comparison of on-the-fly UV spectra obtained with a Perkin-Elmer LC-235 diode array detector. Peak areas and peak heights were measured simultaneously on a Spectra-Physics SP4200 computing integrator.

CD4^+ ATH8 cells = experiment: Toxicity on ATH8 target cells (% toxicity, dye exclusion); type: cell-based; settings: for % Toxicity: human
Procedure: as §1
as §2, with “(Mitsuya, H. & Broder, S. Proc. Nat. Acad. Sci. USA 1986, 83, 1911) Briefly, 200,000 target CD4^+ ATH8 cells were exposed to cell-free HIV-1/IIIB at a dose of 43 (or 1087 for compound 1g) TCID50 (50% tissue culture infectious dose) for 1 h, resuspended in 2 ml of fresh culture media containing interleukin 2, and cultured at 37° C. with or without test compounds in 5% CO2 -containing humidified air.” left out

[5] = octanol/ph 7.0 buffer, pH 7, Log P
[6] = octanol/ph 7.0 buffer, pH 7, octanol/pH 7.0 buffer partition coefficient (P)
[7] = without dCF, read-out: % Toxicity
[8] = additive alone, no test compound

logD [1, 5]: -0.4 ± 0.01
SMILES: OC[C@@H]1C[C@H](F)[C@H](n2cnc3cncnc32)O1 [Compound 1c, 9-(2',3'-dideoxy-2'-fluoro-β-D-arabinofuranosyl)-9-H-purine]
anti-HIV activity (in words) ([2]; ATH8 cells): abolished activity

logD [1, 5]: 0.64 ± 0.01
SMILES: CNc1nc(C)nc2c1ncn2[C@@H]1O[C@H](CO)C[C@@H]1F [Compound 1e, 2,N^6 -Dimethyl-9-(2',3'-dideoxy-2'-fluoro-β-D-arabinofuranosyl)adenine]
anti-HIV activity (in words) ([2]; ATH8 cells): the methyl group in the 2-position abolished activity

Log P ([1]; octanol/ph 7.0 buffer, pH 7): 0.70 ± 0.02
logD [1, 5]: 0.73
logD [1, 6]: 0.732
SMILES: O=C(Nc1ncnc2c1ncn2[C@@H]1O[C@H](CO)C[C@@H]1F)c1ccccc1 [Compound 1g, N^6-benzoyl-9-(2',3'-dideoxy-2'-fluoro-β-D-arabinofuranosyl)adenine]
anti-HIV activity (in words) ([2]; ATH8 cells): preservation of modest activity
cytotoxicity at 192 h, 5 µM ([3]; 5 μM, without dCF): 2%
cytotoxicity at 192 h, 20 µM [3, 7]: 0%
cytotoxicity at 192 h, 50 µM ([3]; 50 μM, without dCF, read-out: % Toxicity): 0%
cytotoxicity at 192 h, 100 µM ([3]; 100 μM, without dCF, read-out: % Toxicity): 8%

logD [1, 5]: 0.1 ± 0.01
SMILES: Cc1nc2c(N)ncnc2n1[C@@H]1O[C@H](CO)C[C@@H]1F [Compound 1h, 8-Methyl-9-(2',3'-dideoxy-2'-fluoro-β-D-arabinofuranosyl)adenine]

The remaining lines, values behind:

SMILES: Cc1cn([C@H]2C[C@H](N=[N+]=[N-])[C@@H](CO)O2)c(=O)[nH]c1=O [AZT, reference compound]
partitioning (in words) ([1]; octanol and pH 7.0 buffer): partitions into octanol and pH 7.0 buffer almost equally
Log P ([1]; octanol/pH 7.0 buffer, 24°-26° C., Table I mean ± standard deviation of three determinations): 0.05 ± 0.01

SMILES: Cc1nc(N)c2ncn([C@@H]3O[C@H](CO)C[C@@H]3F)c2n1 [Compound 1d, 2-methyl-9-(2', 3'-dideoxy-2'-fluoro-β-D-arabinofuranosyl)adenine]
logD ([1]; octanol/ph 7.0 buffer, pH 7): 0.12 ± 0.02
anti-HIV activity (in words) ([2]; ATH8 cells): the methyl group in the 2-position abolished activity

SMILES: OC[C@@H]1C[C@H](F)[C@H](n2cnc3c(Cl)ncnc32)O1 [Compound 1i, 6-Chloro-9-(2',3'-dideoxy-2-fluoro-β-D-arabinofuranosyl)purine]
logD ([1]; octanol/ph 7.0 buffer, pH 7): 0.32 ± 0.02
Measured Relative Rate ([4]; 50 μM substrate, pH 7.4 and 37° C., ddA = 100): 0.06
vmax ([4]; pH 7.4 and 37° C.): 2.6 × 10^-2 μmol/min/U
hydrolysis by ADA, times slower than ddA ([4]; vs ddA, 50 μM substrate): ca. 1700 times slower
protection to HIV-infected ATH8 cells ([2]; ATH8 cells, concentration not given): ca. 50%
anti-HIV activity in the presence of dCF (in words) ([2]; ATH8 cells, dCF added): protection was either abolished or greatly decreased; also recorded: can have activity abolished
anti-HIV activity (in words) ([2]; ATH8 cells): reproducible, albeit unspectacular, activity; also recorded: only moderate anti-HIV activity
% Toxicity (CD4^+ ATH8 cells; 11520 min): 14%
% Toxicity (CD4^+ ATH8 cells; ath8 cells, 192 h, 50 µM): 56%
% Toxicity (CD4^+ ATH8 cells; ath8 cells, 192 h, 100 µM): 72%
cytotoxicity at 192 h, 50 µM ([3]; % Toxicity): 46%
cytotoxicity at 192 h, 100 µM ([3]; % Toxicity): 52%

SMILES: Nc1c2ncn([C@@H]3O[C@H](CO)C[C@@H]3F)c2nc[n+]1[O-] [Compound 21, 9-(2',3'-Dideoxy-2'-fluoro-β-D-arabinofuranosyl)adenine-1-oxide]
logD ([1]; octanol/ph 7.0 buffer, pH 7): -1.38
logD [1, 6]: -1.4
deamination by ADA (in words) ([4]; 0.7 U/mL ADA, 37° C.): no deamination was observed
anti-HIV activity (in words) ([2]; ATH8 cells): abolished activity

SMILES: OC[C@H]1O[C@@H](n2cnc3c2NC=NC[C@H]3O)C[C@@H]1O [dCF, 2'-Deoxycoformycin, reference compound]
protection by additive alone (in words) [2, 8]: did not produce significant toxicity or protection of ATH8 cells against the effects of HIV-1
toxicity / viability effect of additive alone (in words) (CD4^+ ATH8 cells; [8]): did not produce significant toxicity

SMILES: O=c1[nH]cnc2c1ncn2[C@H]1CC[C@@H](CO)O1 [ddI, dideoxyinosine, reference compound]
inhibition at 20 µM ([2]; Human immunodeficiency virus 1, IIIB, ATH-8, 192 h, 20 μM, without dCF): 100%
cytotoxicity at 192 h, 20 µM [3, 7]: 0%
